According to US7074789B2, “Kinase inhibitors” (Amgen Inc., priority 1999, dated 2006):
Where two headings read alike, the source gives them in different places.

Assays:
Format in all cases: biochemical
Kdr = target: T1, Kdr (Homo sapiens, UniProt P35968); test: Kinase inhibition assay (33P transfer), Kdr; details: read-out: KDR-1
T1 construct: Kinases are expressed as either kinase domains or full length constructs; made in house
How it was run: (§1)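 Filterless plate radiometric format: immobilized poly(Glu,Tyr) 4:1 or poly(Arg,Ser) 3:1, 33P-labelled ATP, tagged recombinant kinase (some with regulatory partners). Incorporated label counted after phosphoric acid wash.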

Zap-70 = target: T2, Zap-70 (Homo sapiens, UniProt P43403); test: Kinase inhibition assay (33P transfer), Zap-70; details: read-out: Zap-1
T2 construct: Kinases are expressed as either kinase domains or full length constructs; made in house
T2 sequence (P43403 1-619): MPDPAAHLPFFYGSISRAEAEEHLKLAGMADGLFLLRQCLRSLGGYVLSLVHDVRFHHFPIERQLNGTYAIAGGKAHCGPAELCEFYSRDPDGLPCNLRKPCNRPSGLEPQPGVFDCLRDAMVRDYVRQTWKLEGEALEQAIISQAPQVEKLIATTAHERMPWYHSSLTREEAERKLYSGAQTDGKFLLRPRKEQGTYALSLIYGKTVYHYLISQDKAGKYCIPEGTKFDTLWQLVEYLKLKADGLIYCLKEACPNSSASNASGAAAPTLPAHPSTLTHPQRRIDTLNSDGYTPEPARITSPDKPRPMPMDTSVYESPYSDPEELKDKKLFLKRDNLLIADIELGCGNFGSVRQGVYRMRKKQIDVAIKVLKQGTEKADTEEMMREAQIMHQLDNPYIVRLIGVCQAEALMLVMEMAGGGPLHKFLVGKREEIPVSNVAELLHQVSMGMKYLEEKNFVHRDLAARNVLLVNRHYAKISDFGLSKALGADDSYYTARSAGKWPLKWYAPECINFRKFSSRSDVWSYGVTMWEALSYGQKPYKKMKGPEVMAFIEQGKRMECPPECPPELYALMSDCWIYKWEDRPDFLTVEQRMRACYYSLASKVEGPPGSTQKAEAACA
How it was run: as §1

Lck = target: T3, Lck (Homo sapiens, UniProt P06239); test: Kinase inhibition assay (33P transfer), Lck; details: read-out: Lck-1
T3 construct: Kinases are expressed as either kinase domains or full length constructs; made in house
How it was run: as §1

EGFR = target: T4, EGFR (Homo sapiens, UniProt P00533); test: Kinase inhibition assay (33P transfer), EGFR; details: Table 2, kinase inhibition class; read-out: EGFR-1
T4 construct: Kinases are expressed as either kinase domains or full length constructs; made in house
How it was run: (§2)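 Radiometric format: recombinant tagged kinase (catalytic domain or whole protein, sometimes combined with regulatory polypeptides) phosphorylates immobilised poly(Glu,Tyr) 4:1 or poly(Arg,Ser) 3:1 using [33P]ATP. Wells are washed in 0.5% phosphoric acid, then counted. IC50 is taken where substrate labelling falls by half.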

IGFR-1 [1] = target: T5, IGFR-1 (Homo sapiens, UniProt P08069); test: Kinase inhibition assay (33P transfer), IGFR-1; details: Table 2, kinase inhibition class
T5 construct: Kinases are expressed as either kinase domains or full length constructs; made in house

c-Met = target: T6, c-Met (Homo sapiens, UniProt P08581); test: Kinase inhibition assay (33P transfer), c-Met; details: Table 2, kinase inhibition class; read-out: Met-1
T6 construct: Kinases are expressed as either kinase domains or full length constructs; made in house
How it was run: as §2

Tek = target: T7, Tek (Homo sapiens, UniProt Q02763); test: Kinase inhibition assay (33P transfer), Tek; details: read-out: Tek-1
T7 construct: Kinases are expressed as either kinase domains or full length constructs; made in house
How it was run: as §2

Itk = target: T8, Itk (Homo sapiens, UniProt Q08881); test: Kinase inhibition assay (33P transfer), Itk; details: read-out: Itk-1
T8 construct: Kinases are expressed as either kinase domains or full length constructs; made in house
T8 sequence (Q08881 1-620): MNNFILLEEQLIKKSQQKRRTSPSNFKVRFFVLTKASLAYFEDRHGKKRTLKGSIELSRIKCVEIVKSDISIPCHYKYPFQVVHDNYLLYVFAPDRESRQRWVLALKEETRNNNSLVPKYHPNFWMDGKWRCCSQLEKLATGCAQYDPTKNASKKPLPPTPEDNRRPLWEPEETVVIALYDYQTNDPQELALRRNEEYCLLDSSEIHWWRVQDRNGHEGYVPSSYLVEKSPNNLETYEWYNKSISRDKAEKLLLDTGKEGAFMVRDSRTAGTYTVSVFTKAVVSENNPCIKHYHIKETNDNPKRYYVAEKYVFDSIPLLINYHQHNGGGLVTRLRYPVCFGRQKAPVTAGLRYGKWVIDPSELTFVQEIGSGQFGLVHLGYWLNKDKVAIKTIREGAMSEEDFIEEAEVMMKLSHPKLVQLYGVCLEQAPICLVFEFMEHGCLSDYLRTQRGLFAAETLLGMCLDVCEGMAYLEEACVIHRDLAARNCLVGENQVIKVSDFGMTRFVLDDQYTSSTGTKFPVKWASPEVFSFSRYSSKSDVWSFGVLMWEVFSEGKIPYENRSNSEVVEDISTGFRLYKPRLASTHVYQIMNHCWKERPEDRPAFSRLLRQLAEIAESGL
How it was run: as §2

AKT = target: T9, AKT (Homo sapiens, UniProt Q9Y243); test: Kinase inhibition assay (33P transfer), AKT; details: Table 2, kinase inhibition class; read-out: AKT3-1
T9 construct: Kinases are expressed as either kinase domains or full length constructs; made in house
How it was run: as §1

IGFR-1 [2] = target: T5, IGFR-1; test: Kinase inhibition assay, IGFR-1 (Table 2); details: Table 2, kinase inhibition class
PDGFRB = target: T10, PDGFRB (Homo sapiens, UniProt P09619); test: Kinase inhibition assay (33P transfer), PDGFRB; details: read-out: PDGFRB-1
T10 construct: Kinases are expressed as either kinase domains or full length constructs; made in house

ErbB2 = target: T11, ErbB2 (Homo sapiens, UniProt P04626); test: Kinase inhibition assay (33P transfer), ErbB2; details: read-out: ErbB2-2
T11 construct: Kinases are expressed as either kinase domains or full length constructs; made in house
How it was run: as §2

T5 sequence (P08069 31-1367): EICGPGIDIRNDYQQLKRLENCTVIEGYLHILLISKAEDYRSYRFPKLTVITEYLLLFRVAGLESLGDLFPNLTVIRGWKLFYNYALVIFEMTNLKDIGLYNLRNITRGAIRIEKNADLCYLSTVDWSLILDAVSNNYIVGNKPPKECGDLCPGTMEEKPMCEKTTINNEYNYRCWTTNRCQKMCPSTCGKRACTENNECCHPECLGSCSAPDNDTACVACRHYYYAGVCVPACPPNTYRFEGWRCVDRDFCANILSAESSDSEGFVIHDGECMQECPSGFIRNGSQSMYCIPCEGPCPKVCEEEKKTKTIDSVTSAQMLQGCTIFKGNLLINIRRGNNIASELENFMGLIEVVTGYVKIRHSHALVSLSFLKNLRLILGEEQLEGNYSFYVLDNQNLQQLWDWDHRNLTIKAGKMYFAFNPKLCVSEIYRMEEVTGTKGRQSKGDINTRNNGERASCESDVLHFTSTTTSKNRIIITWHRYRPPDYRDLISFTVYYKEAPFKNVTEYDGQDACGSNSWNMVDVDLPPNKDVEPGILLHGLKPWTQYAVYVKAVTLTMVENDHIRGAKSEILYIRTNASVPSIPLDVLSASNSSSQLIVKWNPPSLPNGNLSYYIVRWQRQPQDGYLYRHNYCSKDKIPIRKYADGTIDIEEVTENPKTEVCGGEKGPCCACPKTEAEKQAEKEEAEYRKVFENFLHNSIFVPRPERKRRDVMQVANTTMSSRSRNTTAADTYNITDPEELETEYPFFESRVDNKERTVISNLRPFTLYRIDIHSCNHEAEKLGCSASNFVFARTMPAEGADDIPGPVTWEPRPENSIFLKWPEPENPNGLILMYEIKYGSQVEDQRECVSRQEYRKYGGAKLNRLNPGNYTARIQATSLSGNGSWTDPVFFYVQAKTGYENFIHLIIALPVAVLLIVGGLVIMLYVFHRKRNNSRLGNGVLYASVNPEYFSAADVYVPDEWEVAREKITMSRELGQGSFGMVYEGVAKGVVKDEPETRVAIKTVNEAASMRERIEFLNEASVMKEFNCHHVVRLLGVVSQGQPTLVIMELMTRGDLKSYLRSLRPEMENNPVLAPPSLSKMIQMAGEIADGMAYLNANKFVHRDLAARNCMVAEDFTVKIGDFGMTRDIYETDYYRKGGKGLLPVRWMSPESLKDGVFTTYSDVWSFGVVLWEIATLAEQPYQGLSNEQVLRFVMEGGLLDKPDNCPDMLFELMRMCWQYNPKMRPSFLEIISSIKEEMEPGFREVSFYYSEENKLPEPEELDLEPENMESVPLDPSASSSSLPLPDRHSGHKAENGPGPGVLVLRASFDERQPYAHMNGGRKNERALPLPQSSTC
T4 sequence (P00533 25-1210, species assumed): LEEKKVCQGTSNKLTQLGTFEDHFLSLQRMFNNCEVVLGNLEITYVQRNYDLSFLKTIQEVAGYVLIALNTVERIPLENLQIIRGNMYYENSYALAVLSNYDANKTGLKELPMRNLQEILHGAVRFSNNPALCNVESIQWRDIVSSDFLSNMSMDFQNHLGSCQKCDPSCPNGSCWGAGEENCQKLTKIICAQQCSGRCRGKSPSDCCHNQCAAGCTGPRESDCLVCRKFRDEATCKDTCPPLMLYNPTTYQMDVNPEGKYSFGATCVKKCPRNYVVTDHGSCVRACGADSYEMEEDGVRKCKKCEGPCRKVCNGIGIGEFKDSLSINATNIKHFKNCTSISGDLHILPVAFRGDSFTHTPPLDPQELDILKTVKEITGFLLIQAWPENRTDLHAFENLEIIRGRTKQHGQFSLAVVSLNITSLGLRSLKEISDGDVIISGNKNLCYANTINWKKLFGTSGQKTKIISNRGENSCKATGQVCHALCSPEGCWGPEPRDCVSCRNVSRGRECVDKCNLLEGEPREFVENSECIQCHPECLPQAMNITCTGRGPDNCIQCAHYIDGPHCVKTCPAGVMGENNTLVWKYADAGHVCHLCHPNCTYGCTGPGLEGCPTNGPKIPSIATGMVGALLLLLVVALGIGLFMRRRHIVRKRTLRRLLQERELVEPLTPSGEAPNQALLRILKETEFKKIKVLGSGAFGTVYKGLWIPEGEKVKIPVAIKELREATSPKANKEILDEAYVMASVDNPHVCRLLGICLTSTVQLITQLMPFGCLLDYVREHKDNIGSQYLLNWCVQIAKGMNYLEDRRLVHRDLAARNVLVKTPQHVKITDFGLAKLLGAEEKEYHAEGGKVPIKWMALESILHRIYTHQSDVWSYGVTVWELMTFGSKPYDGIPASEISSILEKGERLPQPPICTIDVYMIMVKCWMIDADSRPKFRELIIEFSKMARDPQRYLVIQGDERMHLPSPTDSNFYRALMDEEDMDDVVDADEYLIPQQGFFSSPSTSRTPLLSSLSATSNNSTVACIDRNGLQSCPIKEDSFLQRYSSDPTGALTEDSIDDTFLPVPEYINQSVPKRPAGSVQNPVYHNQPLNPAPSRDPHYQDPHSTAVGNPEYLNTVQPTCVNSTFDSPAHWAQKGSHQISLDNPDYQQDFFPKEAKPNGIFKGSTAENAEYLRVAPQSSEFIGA
T6 sequence (P08581 25-1390): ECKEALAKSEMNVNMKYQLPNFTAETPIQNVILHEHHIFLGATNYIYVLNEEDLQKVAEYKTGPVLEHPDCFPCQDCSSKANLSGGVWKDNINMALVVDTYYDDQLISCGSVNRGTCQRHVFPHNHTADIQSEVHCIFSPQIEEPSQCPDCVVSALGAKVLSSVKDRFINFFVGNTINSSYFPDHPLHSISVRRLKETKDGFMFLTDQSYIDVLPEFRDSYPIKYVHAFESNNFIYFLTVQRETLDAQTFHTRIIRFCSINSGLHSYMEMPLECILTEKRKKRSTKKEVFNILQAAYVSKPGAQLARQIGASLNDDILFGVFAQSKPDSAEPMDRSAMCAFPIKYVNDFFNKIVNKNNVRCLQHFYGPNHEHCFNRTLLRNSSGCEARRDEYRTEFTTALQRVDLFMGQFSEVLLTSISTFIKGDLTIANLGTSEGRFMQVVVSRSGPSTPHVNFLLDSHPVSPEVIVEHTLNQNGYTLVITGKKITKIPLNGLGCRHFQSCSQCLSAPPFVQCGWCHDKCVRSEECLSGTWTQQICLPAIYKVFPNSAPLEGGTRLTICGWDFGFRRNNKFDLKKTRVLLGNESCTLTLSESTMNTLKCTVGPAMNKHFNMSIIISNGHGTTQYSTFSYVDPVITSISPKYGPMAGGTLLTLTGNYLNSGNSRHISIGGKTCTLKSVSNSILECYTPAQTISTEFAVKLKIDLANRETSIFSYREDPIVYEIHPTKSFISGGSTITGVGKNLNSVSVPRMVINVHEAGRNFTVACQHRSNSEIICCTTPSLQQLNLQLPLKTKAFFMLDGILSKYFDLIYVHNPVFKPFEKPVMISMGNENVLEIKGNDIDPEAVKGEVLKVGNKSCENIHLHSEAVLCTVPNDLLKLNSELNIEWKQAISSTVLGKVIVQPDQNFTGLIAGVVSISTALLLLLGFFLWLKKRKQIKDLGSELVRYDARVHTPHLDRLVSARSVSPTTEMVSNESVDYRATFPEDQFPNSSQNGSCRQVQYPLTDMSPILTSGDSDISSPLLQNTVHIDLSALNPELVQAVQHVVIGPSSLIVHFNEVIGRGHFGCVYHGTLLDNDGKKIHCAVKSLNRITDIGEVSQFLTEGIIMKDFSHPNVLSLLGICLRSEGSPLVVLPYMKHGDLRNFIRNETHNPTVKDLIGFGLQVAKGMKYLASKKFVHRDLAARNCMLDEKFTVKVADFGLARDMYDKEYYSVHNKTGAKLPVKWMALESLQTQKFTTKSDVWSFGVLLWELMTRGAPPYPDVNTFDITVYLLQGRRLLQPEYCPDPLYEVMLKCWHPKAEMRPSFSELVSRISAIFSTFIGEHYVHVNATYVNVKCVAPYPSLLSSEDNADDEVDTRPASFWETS
T3 sequence (P06239 whole entry, species assumed, the tested form may be a part): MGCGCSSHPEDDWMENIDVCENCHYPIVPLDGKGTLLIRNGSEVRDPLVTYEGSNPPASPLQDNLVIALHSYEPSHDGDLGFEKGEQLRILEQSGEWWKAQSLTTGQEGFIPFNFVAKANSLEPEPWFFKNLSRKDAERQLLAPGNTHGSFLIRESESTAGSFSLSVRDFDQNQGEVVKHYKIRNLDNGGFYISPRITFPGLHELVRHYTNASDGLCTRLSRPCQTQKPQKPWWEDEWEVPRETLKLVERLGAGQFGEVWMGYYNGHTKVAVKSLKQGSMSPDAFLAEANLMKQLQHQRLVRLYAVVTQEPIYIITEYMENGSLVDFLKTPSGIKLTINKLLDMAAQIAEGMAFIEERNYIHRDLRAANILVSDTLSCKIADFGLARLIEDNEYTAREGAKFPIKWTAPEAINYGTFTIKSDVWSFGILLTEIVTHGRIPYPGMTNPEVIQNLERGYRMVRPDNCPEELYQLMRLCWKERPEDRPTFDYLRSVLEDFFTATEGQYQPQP
T9 sequence (Q9Y243 whole entry, the tested form may be a part): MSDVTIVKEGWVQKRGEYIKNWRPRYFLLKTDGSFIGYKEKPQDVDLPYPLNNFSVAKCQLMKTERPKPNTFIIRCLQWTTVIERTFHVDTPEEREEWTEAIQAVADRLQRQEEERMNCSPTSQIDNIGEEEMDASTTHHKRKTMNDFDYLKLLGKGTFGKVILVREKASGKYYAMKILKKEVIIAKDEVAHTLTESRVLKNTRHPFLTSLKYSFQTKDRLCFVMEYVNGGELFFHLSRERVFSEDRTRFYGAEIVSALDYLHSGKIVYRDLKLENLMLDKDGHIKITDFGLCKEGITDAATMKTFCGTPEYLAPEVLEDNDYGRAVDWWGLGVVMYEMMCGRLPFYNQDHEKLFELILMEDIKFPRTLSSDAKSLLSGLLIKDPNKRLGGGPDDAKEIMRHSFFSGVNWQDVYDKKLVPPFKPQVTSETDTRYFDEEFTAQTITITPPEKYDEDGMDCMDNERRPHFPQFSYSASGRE

Structure (SMILES) | IC50 (Kdr; Table 3) [µM] | IC50 (Zap-70; Table 3) [µM] | IC50 (Lck; Table 3) [µM] | IC50 (EGFR) [µM] | IC50 (IGFR-1 [1]) [µM] | IC50 (c-Met) [µM] | IC50 (Tek) [µM] | IC50 (Itk; Table 3) [µM] | IC50 (AKT) [µM] | IC50 (IGFR-1 [2]) [µM] | IC50 (Kdr) [µM] | IC50 (Zap-70) [µM] | IC50 (PDGFRB) [µM] | IC50 (Lck) [µM] | IC50 (ErbB2) [µM] | IC50 (Itk) [µM]
COc1ccccc1Nc1ncnc(-c2ccccc2)n1 [Compound 12] | 12.6 to 16.2 | > 16.2 | > 16.2 | > 16.2 | > 16.2 | > 16.2 | > 16.2 | > 16.2 | > 16.2 |  |  |  |  |  |  | 
COc1cc(Nc2ncnc(Nc3cc(OC)c(OC)c(OC)c3)n2)ccc1OCCN1CCOCC1 [Compound 601] |  |  |  | 0.78 to 4.68 |  | > 8.78 |  |  | > 8.78 | > 8.78 | 4.68 to 6.83 | > 8.78 | 0.78 to 4.68 | 0.78 to 4.68 | 0.78 to 4.68 | > 8.78
COc1ccc(Nc2ncnc(Nc3ccc(OCc4ccccc4)cc3)n2)cc1 [Compound 161] | 1 to 6.01 | > 11.3 | > 11.3 | > 11.3 | > 11.3 | > 11.3 | 6.01 to 8.76 | > 11.3 | 6.01 to 8.76 |  |  |  |  |  |  | 
COc1cc(Nc2ncnc(-n3c(NCc4ccc(Cl)cc4C)nc4ccccc43)n2)cc(OC)c1OC [Compound 597] |  |  |  | 6.58 to 8.46 |  | > 8.46 |  |  | 4.51 to 6.58 | 6.58 to 8.46 | 0.752 to 4.51 | > 8.46 | 4.51 to 6.58 | 0.752 to 4.51 | 0.752 to 4.51 | > 8.46
CC(C)(C)OC(=O)Nc1ccc(Nc2ncnc(-c3ccccc3)n2)cc1 [Compound 19] | 6.6 to 9.63 | 6.6 to 9.63 | > 12.4 | > 12.4 | 6.6 to 9.63 | > 12.4 | > 12.4 | > 12.4 | > 12.4 |  |  |  |  |  |  | 
COc1ccc(Nc2ncnc(Nc3cc(OC)c(OC)c(OC)c3)n2)cc1OCCN1CCOCC1 [Compound 599] |  |  |  | 6.83 to 8.78 |  | > 8.78 |  |  | > 8.78 | > 8.78 | 4.68 to 6.83 | > 8.78 | 0.78 to 4.68 | 0.78 to 4.68 | 4.68 to 6.83 | > 8.78
Oc1ccc(Nc2ncnc(-c3ccccc3)n2)cc1 [Compound 11] | 1.51 to 9.08 | > 17 | 9.08 to 13.2 | > 17 | > 17 | > 17 | > 17 | > 17 | > 17 |  |  |  |  |  |  | 
COc1cc(Nc2ncnc(-n3c(NCC(N)=O)nc4ccccc43)n2)cc(OC)c1OC [Compound 389] | > 9.99 | > 9.99 | > 9.99 | > 9.99 | < 0.888 | > 9.99 | > 9.99 | > 9.99 | > 9.99 |  |  |  |  |  |  | 
COc1ccc(Nc2ncnc(-c3ccccc3)n2)cc1 [Compound 14] | > 16.2 | 12.6 to 16.2 | > 16.2 | > 16.2 | > 16.2 | > 16.2 | > 16.2 | > 16.2 | > 16.2 |  |  |  |  |  |  | 
COc1cccc(Nc2ncnc(Nc3ccc(OCc4ccccc4)cc3)n2)c1 [Compound 160] | > 11.3 | > 11.3 | > 11.3 | 1 to 6.01 | > 11.3 | 8.76 to 11.3 | > 11.3 | > 11.3 | 8.76 to 11.3 |  |  |  |  |  |  | 
Oc1cccc(Nc2ncnc(-c3ccccc3)n2)c1 [Compound 18] | 9.08 to 13.2 | > 17 | 9.08 to 13.2 | > 17 | > 17 | > 17 | > 17 | > 17 | > 17 |  |  |  |  |  |  | 
COc1cc(Nc2ncnc(-n3ccnc3)n2)cc(OC)c1OC [Compound 183] | 7.31 to 10.7 | > 13.7 | > 13.7 | > 13.7 | > 13.7 | > 13.7 |  | > 13.7 | > 13.7 |  |  |  |  |  |  | 
COc1cc(Nc2ncnc(-c3ccccc3)n2)cc(OC)c1 [Compound 15] | > 14.6 | 11.4 to 14.6 | > 14.6 | > 14.6 | > 14.6 | > 14.6 | > 14.6 | > 14.6 | > 14.6 |  |  |  |  |  |  | 
N#Cc1ccc(Nc2ncnc(-c3cccs3)n2)cc1 [Compound 356] | > 16.1 | > 16.1 | > 16.1 | > 16.1 | > 16.1 | > 16.1 |  | > 16.1 | > 16.1 |  |  |  |  |  |  | 
COc1cccc(Nc2ncnc(-c3ccccc3)n2)c1 [Compound 13] | > 16.2 | > 16.2 | > 16.2 | > 16.2 | > 16.2 | > 16.2 | > 16.2 | > 16.2 | > 16.2 |  |  |  |  |  |  | 
